Results reported in US10295551B2, “Development and use of fluorescent probes of unbound bilirubin” (Alan Marc Kleinfeld, priority 2011, dated 2019).
Like-named read-outs stand apart in the source and are kept apart here.

Experiments:
[1] = biological target: T1, rI-FABP (SEQ ID NO: 3) variant BL22P1B11, MGI-KR14-14R 18L 25C 27A 38V 60R 73F 106L 115R 117D, SEQ ID NO: 35 (Rattus norvegicus, UniProt P02693, A74F/K101R/K126R/K17R/K21R/K28A/K30R/K38R/K47R/K51R/K89R/K8R/K93R/K95R/L39V/L73A/M19L/Q116R/R107L/V26C/V61R/Y118D/Y15R); format: binding; details: Table 5, Alexa Fluor 680 C2-maleimide; read-out: Kd
T1 construct: made in house
T1 sequence (P02693 with tags, fused parts or gaps with the stated changes): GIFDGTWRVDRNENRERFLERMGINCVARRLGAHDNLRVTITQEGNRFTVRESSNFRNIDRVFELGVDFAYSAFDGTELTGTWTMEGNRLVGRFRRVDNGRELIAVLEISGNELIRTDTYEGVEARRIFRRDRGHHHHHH

[2] = biological target: rI-FABP (SEQ ID NO: 3) variant L2P14 F7, 18G 31M 72A (Rattus norvegicus, UniProt P02693, G32M/L73A/M19G); assay: bilirubin binding to L2P14F7 probe; details: Table 6, acrylodan
rI-FABP (SEQ ID NO: 3) variant L2P14 F7, 18G 31M 72A, sequence (P02693 with tags, fused parts or gaps M19G/G32M/L73A): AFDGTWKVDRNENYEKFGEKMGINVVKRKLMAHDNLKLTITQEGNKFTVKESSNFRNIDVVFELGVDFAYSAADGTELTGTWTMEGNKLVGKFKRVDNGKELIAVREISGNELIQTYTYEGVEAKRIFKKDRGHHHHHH
Protocol: (§1) Also described are analytical/mathematical methods for calibrating and using the bilirubin probes. Bilirubin probes are calibrated to determine their binding affinity for bilirubin (dissociation constant Kd) under conditions, such as temperature, pH and solution composition, that correspond to samples in which it is desired to know the unbound bilirubin concentration. Binding isotherms are performed in aqueous buffer by measuring the change in fluorescence of the bilirubin probes in response to increasing bilirubin concentrations (“titration data”). The set of fluorescence responses at each bilirubin concentration are fitted with an appropriate equation (“calibration equation”) that correctly describes the fluorescence response as a function of the bilirubin concentration, the probe concentration, specific spectroscopic characteristics, and the Kd.

[3] = biological target: T2, rI-FABP (SEQ ID NO: 3) variant L10P9 E6, 14T 18L 73M 117C 72A (Rattus norvegicus, UniProt P02693, A74M/L73A/M19L/Y118C/Y15T); assay: bilirubin binding to L10P9E6 probe; details: Table 5, acrylodan
T2 construct: made in house
T2 sequence (P02693 with tags, fused parts or gaps Y15T/M19L/L73A/A74M/Y118C): as the sequence (P02693 with tags, fused parts or gaps M19G/G32M/L73A) above, with Y14T, G18L, M31G, A73M, Y117C counted along it
Protocol: as §1

[4] = biological target: T3, rI-FABP (SEQ ID NO: 3) variant L22P19 B9, 38R 72A 73M 106Q 115C (Rattus norvegicus, UniProt P02693, A74M/L39R/L73A/Q116C/R107Q); assay: bilirubin binding to L22P19B9 probe; details: Table 5, acrylodan
T3 construct: made in house
T3 sequence (P02693 with tags, fused parts or gaps L39R/L73A/A74M/R107Q/Q116C): as the sequence (P02693 with tags, fused parts or gaps M19G/G32M/L73A) above, with G18M, M31G, L38R, A73M, R106Q, Q115C counted along it
Protocol: as §1

[5] = biological target: T4, rI-FABP (SEQ ID NO: 3) variant L24P19 C7, 14R 18L 27A 38V 60R 73F 106A 115R 117D (Rattus norvegicus, UniProt P02693, A74F/K28A/L39V/L73A/M19L/Q116R/R107A/V61R/Y118D/Y15R); assay: bilirubin binding to L24P19 C7 as listed in Table 6; details: Table 6, acrylodan
T4 construct: Residues 27 and 106 disputed: row prints 27A 106A
T4 sequence (P02693 with tags, fused parts or gaps Y15R/M19L/K28A/L39V/V61R/L73A/A74F/R107A/Q116R/Y118D): as the sequence (P02693 with tags, fused parts or gaps M19G/G32M/L73A) above, with Y14R, G18L, K27A, M31G, L38V, V60R, A73F, R106A, Q115R, Y117D counted along it
Protocol: as §1

[6] = biological target: T5, rI-FABP (SEQ ID NO: 3) variant BL22P1 B11 - 24C, MGI - KR14 - 14R 18L 24C 27A 38V 60R 73F 106L 115R 117D (Rattus norvegicus, UniProt P02693, A74F/K101R/K126R/K17R/K21R/K28A/K30R/K38R/K47R/K51R/K89R/K8R/K93R/K95R/L39V/L73A/M19L/N25C/Q116R/R107L/V61R/Y118D/Y15R); format: binding; details: Table 5, Alexa Fluor 680 C2-maleimide
T5 construct: 6xHis (C); made in house
T5 sequence (P02693 with tags, fused parts or gaps with the stated changes): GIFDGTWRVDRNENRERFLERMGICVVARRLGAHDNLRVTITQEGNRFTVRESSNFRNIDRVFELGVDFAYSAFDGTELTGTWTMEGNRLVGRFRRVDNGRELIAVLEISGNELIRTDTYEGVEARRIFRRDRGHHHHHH
Protocol: as §1

[7] = biological target: T6, rI-FABP (SEQ ID NO: 3) variant BL22P1 B11 - 26C, MGI - KR14 - Y14R M18L V26C K27A L38V V60R A73F R106L Q115R Y117D (Rattus norvegicus, UniProt P02693, A74F/K101R/K126R/K17R/K21R/K28A/K30R/K38R/K47R/K51R/K89R/K8R/K93R/K95R/L39V/L73A/M19L/Q116R/R107L/V27C/V61R/Y118D/Y15R); format: binding; details: Table 5, Alexa Fluor 680 C2-maleimide
T6 construct: 6xHis (C); made in house
T6 sequence (P02693 with tags, fused parts or gaps with the stated changes): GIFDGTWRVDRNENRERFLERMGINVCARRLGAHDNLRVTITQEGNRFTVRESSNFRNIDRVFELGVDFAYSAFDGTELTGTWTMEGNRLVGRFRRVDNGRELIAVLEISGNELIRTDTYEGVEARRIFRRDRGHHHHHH
Protocol: as §1

[8] = biological target: T7, rI-FABP (SEQ ID NO: 3) variant BL22P1 B11 - 27C, MGI - KR14 - Y14R M18L K27C L38V V60R A73F R106L Q115R Y117D (Rattus norvegicus, UniProt P02693, A74F/K101R/K126R/K17R/K21R/K28C/K30R/K38R/K47R/K51R/K89R/K8R/K93R/K95R/L39V/L73A/M19L/Q116R/R107L/V61R/Y118D/Y15R); format: binding
T7 construct: 6xHis (C); made in house
T7 sequence (P02693 with tags, fused parts or gaps with the stated changes): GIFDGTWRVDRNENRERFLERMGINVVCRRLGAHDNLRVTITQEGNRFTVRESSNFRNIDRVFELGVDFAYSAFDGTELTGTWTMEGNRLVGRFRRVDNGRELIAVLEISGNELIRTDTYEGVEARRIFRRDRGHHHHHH
Protocol: as §1

[9] = biological target: T8, rI-FABP (SEQ ID NO: 3) variant BL22P1 B11 - 33C, MGI - KR14 - 14R 18L 27A 33C 38V 60R 73F 106L 115R 117D (Rattus norvegicus, UniProt P02693, A74F/H34C/K101R/K126R/K17R/K21R/K28A/K30R/K38R/K47R/K51R/K89R/K8R/K93R/K95R/L39V/L73A/M19L/Q116R/R107L/V61R/Y118D/Y15R); format: binding
T8 construct: 6xHis (C); made in house
T8 sequence (P02693 with tags, fused parts or gaps with the stated changes): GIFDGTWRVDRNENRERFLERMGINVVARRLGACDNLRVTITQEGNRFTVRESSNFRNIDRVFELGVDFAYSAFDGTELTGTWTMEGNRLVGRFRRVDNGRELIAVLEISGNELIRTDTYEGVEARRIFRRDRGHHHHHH
Protocol: as §1

[10] = biological target: T9, rI-FABP (SEQ ID NO: 3) variant BL22P1 B11 - 54C, MGI - KR14 - 14R 18L 27A 38V 54C 60R 73F 106L 115R 117D (Rattus norvegicus, UniProt P02693, A74F/K101R/K126R/K17R/K21R/K28A/K30R/K38R/K47R/K51R/K89R/K8R/K93R/K95R/L39V/L73A/M19L/N55C/Q116R/R107L/V61R/Y118D/Y15R); format: binding; details: Table 5, Alexa Fluor 680 C2-maleimide
T9 construct: 6xHis (C); made in house
T9 sequence (P02693 with tags, fused parts or gaps with the stated changes): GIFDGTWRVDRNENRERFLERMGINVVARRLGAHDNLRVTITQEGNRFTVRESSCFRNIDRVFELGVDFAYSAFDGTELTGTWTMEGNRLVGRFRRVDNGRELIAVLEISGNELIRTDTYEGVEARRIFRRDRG
Protocol: as §1

[11] = biological target: T10, rI-FABP (SEQ ID NO: 3) variant BL22P1 B11 - 74C, MGI - KR14 - 14R 18L 27A 38V 60R 73F 74C 106L 115R 117D (Rattus norvegicus, UniProt P02693, A74F/D75C/K101R/K126R/K17R/K21R/K28A/K30R/K38R/K47R/K51R/K89R/K8R/K93R/K95R/L39V/L73A/M19L/Q116R/R107L/V61R/Y118D/Y15R); format: binding; details: Table 5, Alexa Fluor 680 C2-maleimide
T10 construct: 6xHis (C); made in house
T10 sequence (P02693 with tags, fused parts or gaps with the stated changes): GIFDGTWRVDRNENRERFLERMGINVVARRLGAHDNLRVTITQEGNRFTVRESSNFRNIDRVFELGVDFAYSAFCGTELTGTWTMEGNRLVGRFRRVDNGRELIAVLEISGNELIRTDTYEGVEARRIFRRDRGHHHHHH
Protocol: as §1

[12] = Table 5, Alexa Fluor 680 C2-maleimide
[13] = Table 5, Alexa Fluor 750 C5-maleimide

Kd [1]: 110 nM | Kd [2]: 69 nM | Kd [3]: 1430 nM | Kd [4]: 400 nM | Kd [5]: 33 nM | Kd [6]: 72 nM | Kd [7]: 197 nM | Kd [8, 12]: 70 nM | Kd [8, 13]: 154 nM | Kd [9, 12]: 250 nM | Kd [9, 13]: 120 nM | Kd [10]: 160 nM | Kd [11]: 160 nM
SMILES: C=CC1=C(C)/C(=C/c2[nH]c(Cc3[nH]c(/C=C4\NC(=O)C(C)=C4C=C)c(C)c3CCC(=O)O)c(CCC(=O)O)c2C)NC1=O [bilirubin]
